Counter-ions that a name gives are not always drawn. Where a SMILES comes first, the peptide text is derived from it. The star is where a group is joined. Cbz = O=C(OCc1ccccc1)*
biological target: T1, Mtb proteasome (Mycobacterium tuberculosis, UniProt P9WHT9); experiment: biochemical; settings: not given
T1 construct: Proteasome activity of the supernatants was assessed; endogenous in cells; host or cells: Mycobacterium tuberculosis H37Ra (crude lysate supernatant)
T1 sequence (P9WHT9 58-291): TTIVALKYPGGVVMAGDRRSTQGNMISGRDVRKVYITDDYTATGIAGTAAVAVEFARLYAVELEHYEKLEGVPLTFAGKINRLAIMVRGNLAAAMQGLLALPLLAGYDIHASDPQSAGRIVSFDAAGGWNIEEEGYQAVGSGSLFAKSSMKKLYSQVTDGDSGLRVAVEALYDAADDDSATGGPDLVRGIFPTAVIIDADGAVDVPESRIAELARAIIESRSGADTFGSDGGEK
T1 sequence (P9WHU1 whole entry partner): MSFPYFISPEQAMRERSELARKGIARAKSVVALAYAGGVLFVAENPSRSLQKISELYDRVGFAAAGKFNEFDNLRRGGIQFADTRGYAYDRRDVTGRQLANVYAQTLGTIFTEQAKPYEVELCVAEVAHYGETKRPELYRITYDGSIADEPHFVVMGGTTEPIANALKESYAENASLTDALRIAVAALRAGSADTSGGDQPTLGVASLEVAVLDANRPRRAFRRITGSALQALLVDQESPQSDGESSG

In order of falling IC50:
1. O=c1c(O)c(-c2ccc(O)cc2)oc2cc(O)cc(O)c12 [kaempferol]  107 µM
2. Cc1cc(O)c2c(c1)C(=O)c1cc(O)cc(O)c1C2=O [emodin]  81.1 µM
3. O=C(/C=C/c1ccc(O)cc1)c1ccc(O)cc1O [isoliquiritigenin]  63.9 µM
4. COc1c(O)cc2oc(-c3ccc(O)cc3)cc(=O)c2c1O [hispidulin]  58.3 µM
5. O=c1c(O)c(-c2cc(O)c(O)c(O)c2)oc2cc(O)cc(O)c12 [myricetin]  55.4 µM
6. O=c1cc(-c2ccccc2)oc2cc(O)c(O)c(O)c12 [baicalein]  45.7 µM
7. CC(C)C[C@@H](C=O)NC(=O)[C@H](CC(C)C)NC(=O)[C@H](CC(C)C)NC(=O)OCc1ccccc1 [MG132, reference compound] (Cbz-Leu-Leu-Leu-aldehyde)  28 µM

In order of rising “IA: inhibitory activity of Mtb proteasome” value:
1. asiaticoside  0.00%
2. madecassoside  0.00%
3. silmyarin  0.00%
4. COc1ccc2cc1Oc1ccc(cc1)C[C@H]1c3cc(c(OC)cc3CCN1C)Oc1c(O)c(OC)cc3c1[C@H](C2)N(C)CC3 [hanfangchin B]  0.00%
5. tubeimoside A  0.00%
6. C/C=C(/C)C(=O)O[C@H]1[C@@H](OC(C)=O)c2c(ccc3ccc(=O)oc23)OC1(C)C [praeruptorin A]  0.00%
7. COc1cc(C)c(C(=O)Oc2cc(C)c(C(=O)O)c(O)c2C)c(OC)c1C [diffractic acid]  0.00%
8. C[C@H]1CC[C@@H]2N(C1)C[C@H]1[C@@H]3C[C@H]4[C@@H](C[C@H](O)[C@H]5C[C@@H](O)CC[C@@]54C)[C@@H]3CC[C@@H]1[C@]2(C)O [peimine]  3.05%
9. C=C(C)[C@@H]1CC[C@]2(CO)CC[C@]3(C)[C@H](CC[C@@H]4[C@@]5(C)CC[C@H](O)C(C)(C)[C@@H]5CC[C@]43C)[C@@H]12 [betulinol]  6.52%
10. COc1ccc([C@H]2OC[C@H]3[C@@H]2CO[C@H]3c2ccc(O[C@@H]3O[C@H](CO)[C@@H](O)[C@H](O)[C@H]3O)c(OC)c2)cc1OC [forsythin]  20.02%
11. CC(C)(O)[C@H]1CC[C@@](C)([C@H]2[C@@H](O)C[C@@]3(C)[C@@H]4C[C@H](O[C@@H]5O[C@H](CO)[C@@H](O)[C@H](O)[C@H]5O)[C@H]5C(C)(C)[C@@H](O[C@@H]6OC[C@@H](O)[C@H](O)[C@H]6O)CC[C@@]56C[C@@]46CC[C@]23C)O1 [astragaloside A]  23.59%
12. COc1cc2c(c(OC)c1OC)-c1c(cc(OC)c(OC)c1OC)C[C@H](C)[C@H](C)C2 [deoxyschizandrin]  23.86%
13. evodine  31.77%
14. C=C1C(=O)O[C@@H]2C[C@@]3(C)CCC[C@H](C)C3=C[C@H]12 [alantolactone]  32.12%
15. C=C1CC[C@@H]2[C@](C)(CO)[C@H](O)CC[C@@]2(C)[C@@H]1/C=C/C1=CCOC1=O [dehydroandrographolide]  32.67%
16. C=C1C[C@@]2(O)O[C@@]3(C[C@H]2C(C)C)[C@@H](C)CC[C@@H]13 [curcumol]  34.66%
17. martin hydrochloride  43.66%
18. O=C(O[C@@H]1Cc2c(O)cc(O)cc2O[C@@H]1c1cc(O)c(O)c(O)c1)c1cc(O)c(O)c(O)c1 [epigallocatechin gallate]  45.21%
19. COC(=O)c1c2c(c3ccccc3c1O)OC(C)(C)C=C2 [rubimaillin]  46.37%
20. COc1c(O)cc2oc3cc(O)c(CC=C(C)C)c(O)c3c(=O)c2c1CC=C(C)C [alpha mangostin]  64.16%

same assay, conditions: 0.5 h, read-out: IA: inhibitory activity of Mtb proteasome

First: CC[C@@]1(O)C(=O)OCc2c1cc1n(c2=O)Cc2cc3ccccc3nc2-1 [camptothecin]
Second: O=c1cc(-c2ccccc2)oc2cc(O)c(O)c(O)c12 [baicalein]
The inhibition at 200 µM of the first is lower: 0% for the first, over 65% for the second.

`O=c1c(O)c(-c2ccc(O)cc2)oc2cc(O)cc(O)c12` [kaempferol] and `O=c1c(O)c(-c2ccc(O)c(O)c2)oc2cc(O)cc(O)c12` [quercetin] cannot be ordered by inhibition at 200 µM: over 65% for the first, over 65% for the second.

Compared with `COc1c(O)cc2c(c1O)[C@@H]1O[C@H](CO)[C@@H](O)[C@H](O)[C@H]1OC2=O` [bergenin], `O=c1c2cc(O)c(O)cc2oc2cc(O)c([C@@H]3O[C@H](CO)[C@@H](O)[C@H](O)[C@H]3O)c(O)c12` [mangiferin] is higher in inhibition at 200 µM: 3.67% for the first, 31.9% for the second.

First: OC[C@H]1O[C@@H](OCCc2ccc(O)cc2)[C@H](O)[C@@H](O)[C@@H]1O [salidroside]
Second: OCc1ccccc1O[C@@H]1O[C@H](CO)[C@@H](O)[C@H](O)[C@H]1O [salicin]
The inhibition at 200 µM of the first is higher: 34% for the first, 0% for the second.

First: COC1=C[C@@H]2[C@@H]3Cc4ccc(OC)c(O)c4[C@]2(CCN3C)CC1=O [sinomenine]
Second: COc1cc(C[C@H]2C(=O)OC[C@@H]2Cc2ccc(OC)c(OC)c2)ccc1O [arctigenin]
The inhibition at 200 µM of the first is lower: 3.77% for the first, 27.1% for the second.

`C=C[C@@H]1C2=CCOC(=O)C2=CO[C@H]1O[C@@H]1O[C@H](CO)[C@@H](O)[C@H](O)[C@H]1O` [gentiopicroside] and `COC(=O)C1=CO[C@@H](O[C@@H]2O[C@H](CO)[C@@H](O)[C@H](O)[C@H]2O)[C@@H]2C(CO)=CC[C@H]12` [geniposide] are the same in inhibition at 200 µM: 0% for the first, 0% for the second.

Compared with `COc1c(O)cc(O)c2c(=O)cc(-c3ccccc3)oc12` [wogonin], `COc1c(O)cc2oc(-c3ccc(O)cc3)cc(=O)c2c1O` [hispidulin] is higher in inhibition at 200 µM: 54% for the first, over 65% for the second.

`O=c1cc(-c2ccc(O)cc2)oc2cc(O)cc(O)c12` [apigenin] and `O=c1cc(-c2ccc(O)c(O)c2)oc2cc(O)cc(O)c12` [luteolin] are the same in inhibition at 200 µM: 0% for the first, 0% for the second.

Compared with `CC1(C)O[C@H]2CC(=O)OC[C@]23[C@H]2CC[C@@]4(C)[C@H](c5ccoc5)OC(=O)[C@H]5O[C@]54[C@]2(C)C(=O)C[C@@H]13` [limonin], `CC(=O)OC(C)(C)CCC(=O)[C@](C)(O)[C@H]1[C@H](O)C[C@@]2(C)[C@@H]3CC=C4[C@@H](C[C@H](O)[C@@H](O)C4(C)C)[C@]3(C)C(=O)C[C@]12C` [hemslecin A] is lower in inhibition at 200 µM: 1.61% for the first, 0% for the second.

Going from `C[C@H]1[C@H](OC(=O)CCC(=O)O)O[C@@H]2O[C@@]3(C)CC[C@H]4[C@H](C)CC[C@@H]1[C@@]24OO3` [artesunate, reference compound] to `C[C@@H]1CC[C@@]2(OC1)O[C@H]1C[C@H]3[C@@H]4CC=C5C[C@@H](O)CC[C@]5(C)[C@H]4CC[C@]3(C)[C@H]1[C@@H]2C` [diosgenin], the inhibition at 200 µM falls from 13.8% to 0%.

First: O=C(/C=C/c1ccc(O)c(O)c1)O[C@@H]1C[C@](O)(C(=O)O)C[C@@H](O)[C@H]1O [chlorogenic acid]
Second: COc1cc(/C=C/C(=O)CC(=O)/C=C/c2ccc(O)c(OC)c2)ccc1O [curcumin]
The inhibition at 200 µM of the first is lower: 0% for the first, over 65% for the second.

Compared with `COc1ccc(-c2cc(=O)c3c(O)cc(O)cc3o2)cc1O` [diosmetin], `O=c1c(O)c(-c2cc(O)c(O)c(O)c2)oc2cc(O)cc(O)c12` [myricetin] is higher in inhibition at 200 µM: 0% for the first, over 65% for the second.

`O[C@H]1[C@H]2c3cc4c(cc3CN3CCC(=C[C@@H]1O)[C@H]23)OCO4` [lycorine hydrochloride] and `COc1ccc2cc1Oc1ccc(cc1)C[C@H]1c3c(cc4c(c3Oc3cc5c(cc3OC)CCN(C)[C@@H]5C2)OCO4)CCN1C` [cepharanthine] are the same in inhibition at 200 µM: 0% for the first, 0% for the second.

`C[C@@H]1O[C@@H](OC[C@H]2O[C@@H](Oc3c(-c4ccc(O)c(O)c4)oc4cc(O)cc(O)c4c3=O)[C@H](O)[C@@H](O)[C@@H]2O)[C@H](O)[C@H](O)[C@H]1O` [rutin] and `COc1c(O[C@@H]2O[C@H](CO)[C@@H](O)[C@H](O)[C@H]2O)cc2occ(-c3ccc(O)cc3)c(=O)c2c1O` [tectoridin] are the same in inhibition at 200 µM: 0% for the first, 0% for the second.

`COc1cc(C(=O)O)cc(OC)c1O` [syringic acid] and `COc1ccc(C(C)=O)c(O)c1` [paeonol] are the same in inhibition at 200 µM: 0% for the first, 0% for the second.

Compared with `COc1ccc2ccc(=O)oc2c1CC=C(C)C` [osthole], `CC(C)=CCOc1c2occc2cc2ccc(=O)oc12` [imperatorin] is higher in inhibition at 200 µM: 0% for the first, 15.9% for the second.

First: N#C[C@H](O[C@@H]1O[C@H](CO[C@@H]2O[C@H](CO)[C@@H](O)[C@H](O)[C@H]2O)[C@@H](O)[C@H](O)[C@H]1O)c1ccccc1 [amygdalin]
Second: O=C(O)C1=C[C@@H](O)[C@@H](O)[C@H](O)C1 [shikimicacid]
The inhibition at 200 µM of the first is higher: 1.87% for the first, 0% for the second.

`O=c1ccc2ccc(O)c(O)c2o1` [daphnetin] and `O=c1ccc2ccccc2o1` [coumarin] are the same in inhibition at 200 µM: 0% for the first, 0% for the second.

Compared with `C=CCc1ccc(O)c(-c2cc(CC=C)ccc2O)c1` [magnolol], `O=C(/C=C/c1ccc(O)cc1)c1ccc(O)cc1O` [isoliquiritigenin] is higher in inhibition at 200 µM: 0% for the first, over 65% for the second.

Going from `COc1ccc(-c2cc(=O)c3c(O)c(OC)c(O)c(OC)c3o2)cc1` [nevadensin] to `O=c1c(-c2ccc(O)cc2)coc2cc(O)ccc12` [daidzein], the inhibition at 200 µM falls from 48% to 0%.

First: O=C1CCC[C@@H]2[C@H]3CCCN4CCC[C@@H](CN12)[C@@H]34 [matrine]
Second: O=C1CCC[C@@H]2[C@H]3CCCN4CCC[C@H](CN12)[C@@H]34 [sophoridine]
The inhibition at 200 µM of the first is higher: 23.5% for the first, 11.8% for the second.

Compared with `Nc1ncnc2c1ncn2[C@@H]1O[C@H](CO)C[C@H]1O` [cordycepin], `C=C1CC[C@@H]2[C@](C)(CO)[C@H](O)CC[C@@]2(C)[C@@H]1C/C=C1/C(=O)OC[C@H]1O` [andrographolide] is lower in inhibition at 200 µM: 7.77% for the first, 0% for the second.

First: C[C@H]1CC[C@@]2(OC1)O[C@H]1C[C@H]3[C@@H]4CC[C@@H]5C[C@@H](O)CC[C@]5(C)[C@H]4CC[C@]3(C)[C@H]1[C@@H]2C [sarsasapogenin]
Second: C=C1CC[C@H]2C(=C)CC[C@H]3C(=C)C(=O)O[C@@H]3[C@@H]12 [dehydrocostuslactone]
The inhibition at 200 µM of the first is lower: 0% for the first, 32.1% for the second.

First: O=C1Nc2ccccc2/C1=C1/Nc2ccccc2C1=O [indirubin]
Second: O=C1c2ccccc2C(=O)c2c1ccc(O)c2O [alizarin]
The inhibition at 200 µM of the first is higher: 46% for the first, 0% for the second.

Compared with `O=C1c2cccc(O)c2C(=O)c2c(O)cccc21` [1,8-dihydroxyanthraquinone], `Cc1cc(O)c2c(c1)C(=O)c1cc(O)cc(O)c1C2=O` [emodin] is higher in inhibition at 200 µM: 36.3% for the first, over 65% for the second.

In the case of `C=C1C(=O)O[C@@H]2/C=C(\C)CC/C=C(\C)CC[C@@H]12` [costunolide], the inhibition at 200 µM is reported as 41.8%.

same assay, conditions: read-out: IA: inhibitory activity of Mtb proteasome

`CC(C)C[C@@H](C=O)NC(=O)[C@H](CC(C)C)NC(=O)[C@H](CC(C)C)NC(=O)OCc1ccccc1` [MG132, reference compound] (Cbz-Leu-Leu-Leu-aldehyde) was tested, and the inhibition at 100 µM was 79.7%.
